From patent US6737383B1, “Herbicidal oxadiazolidines” (priority 1999, dated 2004)

Tests used:
common groundsel = experiment: Test D common groundsel; assay type: in vivo, Senecio vulgaris; settings: Preemergence, 0 to 100 scale
Method in brief: (§1)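 Greenhouse pots, seeds in sandy loam; compounds formulated in non-phytotoxic solvent with surfactant; preemergence treatments went on the soil surface within one day of planting. Injury rated visually 14 to 21 days after application on a 0 (none) to 100 (complete control) scale.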

barnyardgrass = experiment: Test C postemergence barnyardgrass; assay type: in vivo, Echinochloa crus-galli; settings: 0 to 100 scale, 0 no effect, 100 complete control
Method in brief: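 Compounds in a non-phytotoxic solvent with surfactant were sprayed postemergence on greenhouse-grown plants in 60:40 sandy loam/potting mix. After about 14 to 21 days, visual ratings against untreated controls on a 0 (no effect) to 100 (complete control) scale.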

tall mallow = experiment: Test D tall mallow; assay type: in vivo, Malva sylvestris; settings: Preemergence, 0 to 100 scale
Method in brief: as §1

pitted morningglory = experiment: Test D pitted morningglory; assay type: in vivo, Ipomoea lacunosa; settings: Preemergence, 0 to 100 scale
Method in brief: as §1

Spanishneedles = experiment: Test D Spanishneedles; assay type: in vivo, Bidens bipinnata; settings: Preemergence, 0 to 100 scale
Method in brief: as §1

Green foxtail = experiment: Test D green foxtail; assay type: in vivo
Method in brief: as §1

guineagrass = experiment: Test D guineagrass; assay type: in vivo, Panicum maximum; settings: Preemergence, 0 to 100 scale
Method in brief: as §1

purple nutsedge = experiment: Test D purple nutsedge; assay type: in vivo, Cyperus rotundus; settings: Preemergence, 0 to 100 scale
Method in brief: as §1

common pursiane = experiment: Test D common purslane; assay type: in vivo, Portulaca oleracea
Method in brief: as §1

common ragweed = experiment: Test D common ragweed; assay type: in vivo, Ambrosia elatior; settings: Preemergence, 0 to 100 scale
Method in brief: as §1

surinam grass = experiment: Test D surinam grass; assay type: in vivo, Brachiaria decumbens; settings: Preemergence, 0 to 100 scale
Method in brief: as §1

bermuda-grass = experiment: Test D bermudagrass; assay type: in vivo, Cynodon dactylon; settings: Preemergence, 0 to 100 scale
Method in brief: as §1

Alexandergrass = experiment: Test D Alexandergrass; assay type: in vivo, Brachiaria plantaginea; settings: Preemergence, 0 to 100 scale
Method in brief: as §1

large crabgrass = experiment: Test D large crabgrass; assay type: in vivo, Digitaria sanguinalis; settings: Preemergence, 0 to 100 scale
Method in brief: as §1

sandbur = experiment: Test D sandbur; assay type: in vivo, Cenchrus echinatus; settings: Preemergence, 0 to 100 scale
Method in brief: as §1

dallisgrass = experiment: Test D dallisgrass; assay type: in vivo, Paspalum dilatatum; settings: Preemergence, 0 to 100 scale
Method in brief: as §1

itchgrass = experiment: Test D itchgrass; assay type: in vivo, Rottboellia exaltata; settings: Preemergence, 0 to 100 scale
Method in brief: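 Scoring used a 0–100 visual injury scale, with 0 meaning no effect and 100 complete control, assessed 14–21 days after application alongside untreated pots. Preemergence treatments went onto sandy loam surfaces of separately potted seeds within a day of sowing.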

[1] = Rate 16 g/ha, 0 no injury, 100 complete control
[2] = Rate 32 g/ha, 0 no injury, 100 complete control
[3] = Rate 64 g/ha, 0 no injury, 100 complete control
[4] = Rate 125 g/ha, 0 no injury, 100 complete control
[5] = Rate 16 g/ha; Preemergence; 0 to 100 scale, 0 no injury, 100 complete control
[6] = Rate 32 g/ha; Preemergence; 0 to 100 scale, 0 no injury, 100 complete control
[7] = Rate 64 g/ha, Preemergence; 0 to 100 scale, 0 no injury, 100 complete control
[8] = Rate 125 g/ha, Preemergence; 0 to 100 scale, 0 no injury, 100 complete control
[9] = Rate 250 g/ha; Preemergence; 0 to 100 scale
[10] = Rate 500 g/ha, Preemergence; 0 to 100 scale

CC(C)N(C(=O)n1oc(=O)n(C(C)C)c1=O)c1ccc(F)cc1F [Compound 109]
Plant response rating, Com. groundsel (common groundsel; [1]): 0 | Plant response rating, Com. groundsel (common groundsel; [2]): 0 | Plant response rating, Com. groundsel (common groundsel; [3]): 0 | Plant response rating, Com. groundsel (common groundsel; [4]): 0 | Plant response rating, Com. groundsel (common groundsel; Rate 250 g/ha): 0 | Plant response rating, Com. groundsel (common groundsel; Rate 500 g/ha): 0 | Plant response rating, Barnyardgrass (barnyardgrass; Rate 140 g/ha): 60 | Plant response rating, Barnyardgrass (barnyardgrass; Rate 280 g/ha): 85 | Plant response rating, Barnyardgrass (barnyardgrass; Rate 560 g/ha): 85 | Plant response rating, Barnyardgrass (barnyardgrass; Rate 1120 g/ha): 95 | Plant response rating, Tall Mallow (tall mallow; [1]): 0 | Plant response rating, Tall Mallow (tall mallow; [2]): 20 | Tall Mallow plant response rating (tall mallow; [3]): 60 | Tall Mallow plant response rating (tall mallow; [4]): 85 | Plant response rating, Tall Mallow (tall mallow; Rate 250 g/ha): 98 | Plant response rating, Tall Mallow (tall mallow; Rate 500 g/ha): 100 | Plant response rating, P. morninglory (pitted morningglory; [1]): 0 | Plant response rating, P. morninglory (pitted morningglory; [2]): 0 | Plant response rating, P. morninglory (pitted morningglory; [3]): 0 | Plant response rating, P. morninglory (pitted morningglory; [4]): 65 | Plant response rating, P. morninglory (pitted morningglory; Rate 250 g/ha): 85 | Plant response rating, P. morninglory (pitted morningglory; Rate 500 g/ha): 100 | Plant response rating, Spanishneedles (Spanishneedles; [1]): 0 | Plant response rating, Spanishneedles (Spanishneedles; [2]): 10 | Spanishneedles plant response rating (Spanishneedles; [3]): 10 | Spanishneedles plant response rating (Spanishneedles; [4]): 10 | Plant response rating, Spanishneedles (Spanishneedles; Rate 500 g/ha): 30 | Plant response rating, Green foxtail (Green foxtail; Preemergence; Rate 16 g/ha; 0 to 100 scale, 0 no injury, 100 complete control): 98 | Plant response rating, Green foxtail (Green foxtail; Preemergence; Rate 32 g/ha; 0 to 100 scale, 0 no injury, 100 complete control): 100 | Plant response rating, Green foxtail (Green foxtail; [5]): 98 | Plant response rating, Green foxtail (Green foxtail; [6]): 0 | Green foxtail plant response rating (Green foxtail; [7]): 100 | Plant response rating, Green foxtail (Green foxtail; [7]): 100 | Green foxtail plant response rating (Green foxtail; [8]): 100 | Plant response rating, Green foxtail (Green foxtail; [8]): 100 | Plant response rating, Green foxtail (Green foxtail; [9]): 100 | Plant response rating, Green foxtail (Green foxtail; [10]): 100 | Plant response rating, Guineagrass (guineagrass; [1]): 90 | Plant response rating, Guineagrass (guineagrass; [2]): 100 | Plant response rating, Guineagrass (guineagrass; [3]): 100 | Plant response rating, Guineagrass (guineagrass; [4]): 100 | Plant response rating, Guineagrass (guineagrass; Rate 250 g/ha): 100 | Plant response rating, Guineagrass (guineagrass; Rate 500 g/ha): 100 | Plant response rating, Purple nutsedge (purple nutsedge; [1]): 0 | Plant response rating, Purple nutsedge (purple nutsedge; [2]): 0 | Purple nutsedge plant response rating (purple nutsedge; [3]): 40 | Purple nutsedge plant response rating (purple nutsedge; [4]): 40 | Plant response rating, Purple nutsedge (purple nutsedge; Rate 250 g/ha): 75 | Plant response rating, Purple nutsedge (purple nutsedge; Rate 500 g/ha): 85 | Plant response rating, C. purslane (common pursiane; [5]): 0 | Plant response rating, C. purslane (common pursiane; [6]): 0 | Plant response rating, C. purslane (common pursiane; [7]): 0 | Plant response rating, C. purslane (common pursiane; [8]): 0 | Plant response rating, C. purslane (common pursiane; [9]): 0 | Plant response rating, C. purslane (common pursiane; [10]): 55 | Plant response rating, C. purslane (common pursiane; Rate 500 g/ha; Preemergence; 0 to 100 scale): 0 | Plant response rating, C. ragweed (common ragweed; [1]): 0 | Plant response rating, C. ragweed (common ragweed; [2]): 0 | Plant response rating, C. ragweed (common ragweed; [3]): 10 | Plant response rating, C. ragweed (common ragweed; [4]): 10 | Plant response rating, C. ragweed (common ragweed; Rate 250 g/ha): 10 | Plant response rating, C. ragweed (common ragweed; Rate 500 g/ha): 55 | Plant response rating Surinam grass (surinam grass; [1]): 0 | Plant response rating Surinam grass (surinam grass; [2]): 30 | Surinam grass plant response rating (surinam grass; [3]): 85 | Surinam grass plant response rating (surinam grass; [4]): 98 | Plant response rating Surinam grass (surinam grass; Rate 250 g/ha): 100 | Plant response rating Surinam grass (surinam grass; Rate 500 g/ha): 100 | Plant response rating, Bermudagrass (bermuda-grass; [1]): 98 | Plant response rating, Bermudagrass (bermuda-grass; [2]): 100 | Plant response rating, Bermudagrass (bermuda-grass; [3]): 100 | Plant response rating, Bermudagrass (bermuda-grass; [4]): 100 | Plant response rating, Bermudagrass (bermuda-grass; Rate 250 g/ha): 100 | Plant response rating, Bermudagrass (bermuda-grass; Rate 500 g/ha): 100 | Plant response rating, Alexandergrass (Alexandergrass; [1]): 40 | Plant response rating, Alexandergrass (Alexandergrass; [2]): 90 | Plant response rating, Alexandergrass (Alexandergrass; [3]): 98 | Plant response rating, Alexandergrass (Alexandergrass; [4]): 100 | Plant response rating, Alexandergrass (Alexandergrass; Rate 250 g/ha): 100 | Plant response rating, Alexandergrass (Alexandergrass; Rate 500 g/ha): 100 | Plant response rating Large crabgrass (large crabgrass; [1]): 85 | Plant response rating Large crabgrass (large crabgrass; [2]): 100 | Plant response rating Large crabgrass (large crabgrass; [3]): 100 | Plant response rating Large crabgrass (large crabgrass; [4]): 100 | Plant response rating Large crabgrass (large crabgrass; Rate 250 g/ha): 100 | Plant response rating Large crabgrass (large crabgrass; Rate 500 g/ha): 100 | Plant response rating, Sandbur (sandbur; [1]): 0 | Plant response rating, Sandbur (sandbur; [2]): 0 | Sandbur plant response rating (sandbur; [3]): 98 | Sandbur plant response rating (sandbur; [4]): 100 | Plant response rating, Sandbur (sandbur; Rate 250 g/ha): 100 | Plant response rating, Sandbur (sandbur; Rate 500 g/ha): 100 | Plant response rating, Dallisgrass (dallisgrass; [1]): 40 | Plant response rating, Dallisgrass (dallisgrass; [2]): 98 | Plant response rating, Dallisgrass (dallisgrass; [3]): 100 | Plant response rating, Dallisgrass (dallisgrass; [4]): 100 | Plant response rating, Dallisgrass (dallisgrass; Rate 250 g/ha): 100 | Plant response rating, Dallisgrass (dallisgrass; Rate 500 g/ha): 100 | Plant response rating, Itchgrass (itchgrass; [1]): 0 | Plant response rating, Itchgrass (itchgrass; [2]): 65 | Plant response rating, Itchgrass (itchgrass; [3]): 75 | Plant response rating, Itchgrass (itchgrass; [4]): 75 | Plant response rating, Itchgrass (itchgrass; Rate 250 g/ha): 100 | Plant response rating, Itchgrass (itchgrass; Rate 500 g/ha): 100
